“Also recorded” adds a separate entry of the source. Structures can show the parent of a compound that is named as a salt. Where two headings read alike, the source gives them in different places.
Legend:
α-adrenergic1 = details: IV DHE (53 ng/mL); cited from earlier work
5-HT1D = test system: 5-HT1D; parameters: method as in doi:10.1186/1129-2377-14-S1-P75; details: cited from earlier work
5-HT1B [1] = biological target: T1, 5-HT1B (Homo sapiens, UniProt P28222); assay: Radioligand competition binding, [3H]GR125743, Chem-1 cells
T1 construct: host or cells: Chem-1 cells
T1 sequence (P28222 whole entry): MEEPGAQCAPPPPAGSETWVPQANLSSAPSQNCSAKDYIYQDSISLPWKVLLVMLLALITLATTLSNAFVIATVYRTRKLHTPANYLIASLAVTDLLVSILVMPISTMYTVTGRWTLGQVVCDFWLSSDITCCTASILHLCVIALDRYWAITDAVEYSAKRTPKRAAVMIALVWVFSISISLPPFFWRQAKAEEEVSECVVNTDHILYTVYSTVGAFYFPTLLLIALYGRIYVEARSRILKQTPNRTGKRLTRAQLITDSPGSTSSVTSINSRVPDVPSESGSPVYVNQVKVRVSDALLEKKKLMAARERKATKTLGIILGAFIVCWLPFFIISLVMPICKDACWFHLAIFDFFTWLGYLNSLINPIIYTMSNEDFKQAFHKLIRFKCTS
Method: (§4) All assays were performed in duplicate (ie, 2 replicates per assay, per standard manufacturer protocol).

D2S [2] = biological target: T2, D2S (Homo sapiens, UniProt P14416); assay: gpcrMAX PathHunter β-arrestin recruitment, agonist mode; type: cell-based; details: 10 μM; >30% activity = agonist
T2 construct: ProLink enzyme-donor fragment of β-galactosidase (own knowledge of the PathHunter design)
T2 sequence (P14416 1-414 isoform P14416-2): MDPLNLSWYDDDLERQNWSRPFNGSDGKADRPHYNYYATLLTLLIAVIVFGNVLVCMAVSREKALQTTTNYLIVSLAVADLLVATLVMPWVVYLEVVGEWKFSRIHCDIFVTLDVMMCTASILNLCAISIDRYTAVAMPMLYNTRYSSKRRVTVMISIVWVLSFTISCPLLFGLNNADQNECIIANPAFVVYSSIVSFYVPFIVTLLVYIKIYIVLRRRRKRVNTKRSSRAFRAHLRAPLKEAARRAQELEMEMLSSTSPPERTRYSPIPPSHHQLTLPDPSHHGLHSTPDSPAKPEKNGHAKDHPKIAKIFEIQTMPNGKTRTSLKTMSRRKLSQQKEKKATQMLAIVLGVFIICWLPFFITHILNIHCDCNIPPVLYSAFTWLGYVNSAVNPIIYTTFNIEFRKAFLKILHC
Method: (§1) PathHunter cell lines were expanded from freezer stocks according to standard procedures and cells were seeded in a total volume of 20 μL into white-walled, 384-well microplates in duplicate and incubated at 37°C prior to testing. […] Intermediate dilution (1% vehicle concentration) of sample stocks was performed to generate a 5× sample in assay buffer, of which 5 μL was added to the cells and incubated for 90 or 180 min at 37°C or room temperature, depending on the specific receptor, as established by manufacturer optimization protocols (see Supplementary Table 1). For antagonist activity, cells were preincubated with an antagonist for 30 min, followed by an agonist challenge at 80% of the maximal effective concentration (EC80). Intermediate dilution of sample stocks was performed to generate 5× sample in assay buffer, of which 5 μL was added to cells and incubated at 37°C or room temperature for 30 min. This was followed by an addition of 5 μL of 6× EC80 agonist in assay buffer to the cells, which were incubated at 37°C or room temperature for 90 or 180 min. Assay signal for agonist and antagonist modes was generated through a single addition of 12.5 or 15 μL (50% v/v) of PathHunter Detection reagent cocktail, followed by a 1-h incubation at room temperature. Further experimental details can be found in the Supplementary File. Microplates were read with a PerkinElmer EnVision (Shelton, CT) instrument for chemiluminescent signal detection.
(§2) Measurement of agonist and antagonist activity in the assay was calculated as percent activity of relative luminescence units (from positive control). Significance of agonist/antagonist activity was determined based upon prespecified criteria provided by Eurofins DiscoverX. In brief, receptor activity >30% was considered a significant agonist effect. Receptor inhibition >50% was considered a significant inhibitory effect. Please refer to the Supplementary File for more detail.
(§3) Samples were added to cells and incubated for 90 or 180 minutes at 37 °C or room temperature, depending on the specific receptor, as noted, with specific incubation protocols outlined in Supplemental Table 1. For antagonist activity, preincubation temperatures were performed at the temperatures specified in Supplemental Table 1, per target. Incubation with 6× EC80 agonist was determined by the assay manufacturer and selected in order to provide a challenge that was low enough to be below the saturation point, so as to not bias the results, while still at a high enough challenge concentration to yield a robust signal-to-noise ratio. Further information is available from Eurofins Discovery Services upon request.

D2L = biological target: T3, D2L (Homo sapiens, UniProt P14416); assay: as above; type: cell-based; details: 10 μM; >30% activity = agonist
T3 construct: ProLink enzyme-donor fragment of β-galactosidase (own knowledge of the PathHunter design)
T3 sequence (P14416 whole entry, the tested form may be a part): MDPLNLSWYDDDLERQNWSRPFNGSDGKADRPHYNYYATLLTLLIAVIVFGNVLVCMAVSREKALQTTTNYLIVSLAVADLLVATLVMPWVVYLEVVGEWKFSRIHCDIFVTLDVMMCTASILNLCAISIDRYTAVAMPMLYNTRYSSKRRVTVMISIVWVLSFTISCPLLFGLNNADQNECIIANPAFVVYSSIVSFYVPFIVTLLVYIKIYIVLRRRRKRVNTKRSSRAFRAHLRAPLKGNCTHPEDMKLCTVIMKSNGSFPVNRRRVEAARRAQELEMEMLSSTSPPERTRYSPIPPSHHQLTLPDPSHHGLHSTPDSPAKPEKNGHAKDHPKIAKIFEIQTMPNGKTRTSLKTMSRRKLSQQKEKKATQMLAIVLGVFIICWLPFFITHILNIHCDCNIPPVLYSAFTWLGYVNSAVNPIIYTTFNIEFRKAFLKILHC
Method: as §1, §2, §3

5-HT2C [3] = biological target: T4, 5-HT2C (Homo sapiens, UniProt P28335); assay: as above; type: cell-based; details: 10 μM; >30% activity = agonist
T4 construct: ProLink enzyme-donor fragment of β-galactosidase (own knowledge of the PathHunter design)
T4 sequence (P28335 33-458): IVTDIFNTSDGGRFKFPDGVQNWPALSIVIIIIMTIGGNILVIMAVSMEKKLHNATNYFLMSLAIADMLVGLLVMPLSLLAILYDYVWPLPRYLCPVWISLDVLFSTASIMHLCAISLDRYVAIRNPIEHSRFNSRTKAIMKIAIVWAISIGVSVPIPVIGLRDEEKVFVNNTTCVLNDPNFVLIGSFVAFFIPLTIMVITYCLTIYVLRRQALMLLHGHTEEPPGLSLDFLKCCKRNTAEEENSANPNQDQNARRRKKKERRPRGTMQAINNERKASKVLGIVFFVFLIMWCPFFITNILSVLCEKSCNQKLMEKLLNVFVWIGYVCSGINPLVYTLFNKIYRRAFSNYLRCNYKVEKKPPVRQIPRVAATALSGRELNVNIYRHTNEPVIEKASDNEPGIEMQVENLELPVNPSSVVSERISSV
Method: as §1, §2, §3

5-HT5A [4] = biological target: T5, 5-HT5A (Homo sapiens, UniProt P47898); assay: as above; type: cell-based; details: 10 μM; >30% activity = agonist
T5 construct: ProLink enzyme-donor fragment of β-galactosidase (own knowledge of the PathHunter design)
T5 sequence (P47898 whole entry, the tested form may be a part): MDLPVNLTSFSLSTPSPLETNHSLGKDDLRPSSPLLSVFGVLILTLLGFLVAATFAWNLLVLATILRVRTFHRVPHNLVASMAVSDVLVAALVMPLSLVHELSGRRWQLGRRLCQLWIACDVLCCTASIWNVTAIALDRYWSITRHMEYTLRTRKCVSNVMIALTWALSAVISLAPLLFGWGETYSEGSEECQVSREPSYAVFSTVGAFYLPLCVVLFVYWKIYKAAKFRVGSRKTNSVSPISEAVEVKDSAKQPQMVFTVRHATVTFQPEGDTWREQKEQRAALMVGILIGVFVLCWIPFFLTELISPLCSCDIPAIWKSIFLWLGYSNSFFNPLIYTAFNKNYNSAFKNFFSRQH
Method: as §1, §2, §3

5-HT1B [5] = biological target: T1, 5-HT1B; assay: as above; type: cell-based; details: 10 μM; >30% activity = agonist
Method: as §1, §2, §3

5-HT1A [6] = biological target: T6, 5-HT1A (Homo sapiens, UniProt P08908); assay: as above; type: cell-based; details: 10 μM; >30% activity = agonist
T6 construct: ProLink enzyme-donor fragment of β-galactosidase (own knowledge of the PathHunter design)
T6 sequence (P08908 whole entry, the tested form may be a part): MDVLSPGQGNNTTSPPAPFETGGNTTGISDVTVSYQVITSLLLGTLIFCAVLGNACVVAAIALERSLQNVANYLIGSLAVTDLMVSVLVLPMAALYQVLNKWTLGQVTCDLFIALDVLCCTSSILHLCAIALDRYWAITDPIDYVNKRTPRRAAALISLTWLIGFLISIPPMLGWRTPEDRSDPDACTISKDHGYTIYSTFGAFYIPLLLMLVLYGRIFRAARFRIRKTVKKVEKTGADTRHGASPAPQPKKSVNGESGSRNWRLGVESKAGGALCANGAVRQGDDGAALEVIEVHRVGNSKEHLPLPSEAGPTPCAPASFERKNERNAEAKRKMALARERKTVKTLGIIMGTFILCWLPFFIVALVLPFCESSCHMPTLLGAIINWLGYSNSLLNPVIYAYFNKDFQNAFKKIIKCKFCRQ
Method: as §1, §2, §3

D5 [7] = biological target: T7, D5 (Homo sapiens, UniProt P21918); assay: as above; type: cell-based; details: 10 μM; >30% activity = agonist
T7 construct: ProLink enzyme-donor fragment of β-galactosidase (own knowledge of the PathHunter design)
T7 sequence (P21918 whole entry, the tested form may be a part): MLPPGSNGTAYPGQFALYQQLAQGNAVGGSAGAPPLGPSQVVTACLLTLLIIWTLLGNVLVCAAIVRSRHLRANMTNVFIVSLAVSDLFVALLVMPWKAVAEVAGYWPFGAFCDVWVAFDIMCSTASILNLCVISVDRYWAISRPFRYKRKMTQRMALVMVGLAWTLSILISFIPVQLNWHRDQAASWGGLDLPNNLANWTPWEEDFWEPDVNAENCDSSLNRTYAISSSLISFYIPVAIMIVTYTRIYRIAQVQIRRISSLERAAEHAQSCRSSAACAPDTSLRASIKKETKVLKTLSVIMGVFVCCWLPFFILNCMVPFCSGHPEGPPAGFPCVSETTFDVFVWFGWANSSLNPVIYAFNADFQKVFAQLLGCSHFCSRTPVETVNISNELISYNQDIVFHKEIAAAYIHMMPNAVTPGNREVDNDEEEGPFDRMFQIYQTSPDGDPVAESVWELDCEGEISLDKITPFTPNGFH
Method: as §1, §2, §3

human 5-HT3 receptor = biological target: T8, human 5-HT3 receptor (Homo sapiens, UniProt P46098); assay: Radioligand competition binding, [3H]GR-65630, HEK-293 cell membranes
T8 construct: host or cells: HEK-293
T8 sequence (P46098 24-478): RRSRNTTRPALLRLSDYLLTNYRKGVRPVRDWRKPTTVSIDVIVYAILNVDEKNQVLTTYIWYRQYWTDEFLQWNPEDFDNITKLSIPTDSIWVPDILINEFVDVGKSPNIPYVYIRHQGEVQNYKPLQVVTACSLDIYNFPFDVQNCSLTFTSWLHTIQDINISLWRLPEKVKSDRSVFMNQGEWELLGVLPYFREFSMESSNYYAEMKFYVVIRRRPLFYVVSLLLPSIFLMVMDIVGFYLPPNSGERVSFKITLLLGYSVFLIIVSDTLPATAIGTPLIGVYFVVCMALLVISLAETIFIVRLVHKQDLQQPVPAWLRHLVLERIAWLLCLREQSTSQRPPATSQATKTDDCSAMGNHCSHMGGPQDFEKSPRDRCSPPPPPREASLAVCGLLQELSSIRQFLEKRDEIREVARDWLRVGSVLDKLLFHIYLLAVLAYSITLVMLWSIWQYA
Method: Nonspecific binding was determined in the presence of 10 μM MDL 72222. Following incubation, the samples were filtered rapidly under vacuum through glass fiber filters (GF/B, Packard; Kennesaw, GA) presoaked with 0.3% polyethyleneimine and rinsed several times with ice-cold 50 mM Tris–HCl using a 96-sample cell harvester (UniFilter, Packard). The filters were dried and then counted for radioactivity in a scintillation counter (TopCount, Packard) using a scintillation cocktail (MicroScint 0, Packard). Results are expressed as percent inhibition of the control radioligand–specific binding. The standard reference compound was MDL 72222, which was tested in each experiment at several concentrations to obtain a competition curve from which its half-maximal inhibitory concentration (IC50) was calculated.

5-HT7 = details: IV DHE (53 ng/mL); cited from earlier work
[8] = 1 mg of IV DHE, cited from earlier work
5-HT2C [9] = details: IV DHE (53 ng/mL); cited from earlier work
[10] = 1.0 mg of IV DHE, phase 1 study, cited from earlier work
5-HT1B/1D receptors = test system: 5-HT1B/1D receptors; parameters: method as in doi:10.1186/1129-2377-14-S1-P75; details: cited from earlier work
5-HT5A [11] = details: IV DHE (53 ng/mL); cited from earlier work
CXCR7 = CXCR7 (Homo sapiens, UniProt P25106); assay: Radioligand binding assay (as worded in the discussion); details: at concentrations <1.0 μM
Sequence of CXCR7 (P25106 whole entry): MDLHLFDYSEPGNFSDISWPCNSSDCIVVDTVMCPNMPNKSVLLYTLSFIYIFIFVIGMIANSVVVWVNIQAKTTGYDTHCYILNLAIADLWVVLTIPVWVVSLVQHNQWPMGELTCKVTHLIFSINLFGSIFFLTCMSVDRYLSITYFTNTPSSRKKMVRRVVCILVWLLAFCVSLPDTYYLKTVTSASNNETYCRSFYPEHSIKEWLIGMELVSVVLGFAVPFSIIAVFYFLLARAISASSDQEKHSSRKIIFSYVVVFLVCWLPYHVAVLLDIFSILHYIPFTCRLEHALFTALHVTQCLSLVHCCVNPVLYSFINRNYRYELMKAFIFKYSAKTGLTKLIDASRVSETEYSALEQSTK

5-HT1A [12] = details: IV DHE (53 ng/mL); cited from earlier work
D5 [13] = biological target: T7, D5; assay: Radioligand competition binding, [3H]SCH 23390, GH4 cells
Method: as §4

D2S [14] = details: IV DHE (53 ng/mL); cited from earlier work
D2 = biological target: T9, D2 (Homo sapiens, UniProt P14416); assay: Radioligand competition binding, [3H]7-OH-DPAT, HEK-293 cells
T9 construct: host or cells: HEK-293
T9 sequence (P14416 1-414 isoform P14416-2): as the sequence (P14416 1-414 isoform P14416-2) above
Method: as §4

D3 = details: IV DHE (53 ng/mL); cited from earlier work

For `CN1C[C@H](C(=O)N[C@]2(C)O[C@@]3(O)[C@@H]4CCCN4C(=O)[C@H](Cc4ccccc4)N3C2=O)C[C@@H]2c3cccc4[nH]cc(c34)C[C@H]21` [DHE, Dihydroergotamine mesylate], the “receptor radioligand binding (active binding)” value (shortened to “receptor radioligand binding”) (α-adrenergic1) is listed as “X (An X denotes active binding)”, the dissociation half-life (5-HT1D) is listed as 1.28 h and the IC50 (5-HT1B [1]) is listed as 0.58 nM. The “DHE activity (screening)” value (D2S [2]) was “Agonist”, the “DHE activity (screening)” value (D2L) was “Agonist” and the “DHE activity (screening)” value (5-HT2C [3]) was “Agonist”. The “DHE activity (screening)” value (5-HT5A [4]) was “Agonist”, the “DHE activity (screening)” value (5-HT1B [5]) was “Agonist” and the “DHE activity (screening)” value (5-HT1A [6]) was “Agonist”. The “DHE activity (screening)” value (D5 [7]) was “Agonist”, the IC50 (human 5-HT3 receptor) was over 300 nM and the “binding to the 5-HT3 receptor” value (human 5-HT3 receptor; at concentrations up to 300 nM) was “did not bind; also recorded: did not exhibit binding”. For the same compound, the “receptor radioligand binding” value (5-HT7) was “X (An X denotes active binding)”, the “maximum plasma concentration (Cmax)” value [8] was 53 ng/mL and the Cmax ([8]; read-out: maximum plasma concentration (Cmax)) was about 91 nM. The “receptor radioligand binding” value (5-HT2C [9]) was “X (An X denotes active binding)”, the “Human plasma Cmax” value [10] was 14.2 ng/mL and the Cmax ([10]; read-out: Human plasma Cmax) was about 24 nM. For the same compound, the “time bound to the receptors longer than sumatriptan” value (5-HT1B/1D receptors; 5-HT1B and 5-HT1D) was 8 to 14 h, the “dissociation half-lives, times longer than those of sumatriptan” value (5-HT1B/1D receptors; human 5-HT1B and 5-HT1D) was “approximately 10 times” and the “receptor radioligand binding” value (5-HT5A [11]) was “X (An X denotes active binding)”. For the same compound, the “DHE binding/activity at CXCR7” value (CXCR7) was “Additional notes • Radioligand binding assays reported here did not show DHE binding at concentrations <1.0 μM; therefore, agonist activity of DHE on CXCR7 is unlikely in clinically relevant conditions”, the “receptor radioligand binding” value (5-HT1A [12]) was “X (An X denotes active binding)” and the IC50 (D5 [13]) was 370 nM. The “receptor radioligand binding” value (D2S [14]) was “X (An X denotes active binding)”, the IC50 (D2) was 0.47 nM and the “receptor radioligand binding” value (D3) was “X (An X denotes active binding)”.
